For ten compounds, IC50 results are on record in patent US20260184707A1, “PHARMACEUTICAL COMPOUNDS FOR THE TREATMENT OF COMPLEMENT MEDIATED DISORDERS” (ALEXION PHARMACEUTICALS, INC., priority 2022, published 2026).

In the test the target is T1, Human complement C1s enzyme (Homo sapiens, UniProt P09871).
T1 construct: purified from human serum, Complement Technology, Inc; purchased Complement Technology, Inc; host or cells: human serum (plasma-derived native protein)
T1 sequence (P09871 438-688 limits assumed): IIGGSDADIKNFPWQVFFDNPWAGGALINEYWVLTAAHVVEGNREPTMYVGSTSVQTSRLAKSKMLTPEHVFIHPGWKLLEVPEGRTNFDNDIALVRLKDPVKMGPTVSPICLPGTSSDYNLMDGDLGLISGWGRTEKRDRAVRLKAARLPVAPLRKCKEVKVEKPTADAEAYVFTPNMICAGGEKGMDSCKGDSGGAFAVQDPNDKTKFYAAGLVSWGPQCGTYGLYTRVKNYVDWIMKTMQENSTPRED
T1 sequence (P09871 16-437 partner limits assumed): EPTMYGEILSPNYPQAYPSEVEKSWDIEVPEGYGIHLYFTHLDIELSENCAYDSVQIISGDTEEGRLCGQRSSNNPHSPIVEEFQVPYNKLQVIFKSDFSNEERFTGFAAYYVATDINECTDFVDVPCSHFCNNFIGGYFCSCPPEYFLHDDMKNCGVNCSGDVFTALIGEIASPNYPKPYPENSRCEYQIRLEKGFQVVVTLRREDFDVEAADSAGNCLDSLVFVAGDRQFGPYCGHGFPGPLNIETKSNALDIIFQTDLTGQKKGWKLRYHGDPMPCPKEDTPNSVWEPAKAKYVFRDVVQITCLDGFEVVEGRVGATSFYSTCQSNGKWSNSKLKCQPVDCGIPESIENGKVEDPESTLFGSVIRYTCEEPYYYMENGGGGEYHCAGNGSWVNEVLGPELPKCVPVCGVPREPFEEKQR
Description: Human C1s enzyme assay. The test is classed as biochemical. To be noted: human complement C1s enzyme 1.16 nM, substrate Z-L-Lys-SBzl, A405; read-out: IC50 (Stars). The method, boiled down: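 Thioesterase activity followed colorimetrically (DTNB, A405, 30-s reads) using 100 μM Z-L-Lys-SBzl substrate. Enzyme, human serum-derived C1s at 1.16 nM final, was incubated with test compound for 5 min, room temperature, pH 7.5 Tris buffer with 1 M NaCl. Rate-versus-concentration data fitted by nonlinear regression for IC50.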

Turning to `C[C@@H](Nc1cnc(-c2nccs2)n(CC(=O)NCc2cc3cnccc3[nH]2)c1=O)c1ccc2oc3ccccc3c2c1` [Compound 340, (R)-N-((1H-pyrrolo[3,2-c]pyridin-2-yl)methyl)-2-(5-((1-(dibenzo[b,d]furan-2-yl)ethyl)-amino)-6-oxo-2-(thiazol-2-yl)-pyrimidin-1(6H)-yl)acetamide], the IC50 fell in the range of 100 to 1000 nM.
The result for `Cc1ncc(NCc2ccc3oc4ccccc4c3c2)c(=O)n1CC(=O)NCc1cc2cnccc2[nH]1` [Compound 247, N-((1H-pyrrolo[3,2-c]pyridin-2-yl)methyl)-2-(5-((dibenzo [b,d]furan-2-ylmethyl)amino)-2-methyl-6-oxopyrimidin-1(6H)-yl)acetamide] reads under 100 nM; that for `O=C(Cn1c(-c2ccccc2)ncc(NC(=O)c2ccc3c(c2)oc2ccccc23)c1=O)NCc1cc2cnccc2[nH]1` [Compound 203, N-(1-(2-(((1H-pyrrolo[3,2-c]pyridin-2-yl)methyl)amino)-2-oxoethyl)-6-oxo-2-phenyl-1,6-dihydropyrimidin-5-yl)dibenzo [b,d]furan-3-carboxamide], under 100 nM.
In the case of `C[C@@H](Nc1cnc(-c2ccc(OCCOCCOCCN)cc2)n(CC(=O)NCc2cc3cnccc3[nH]2)c1=O)c1ccc2oc3ccccc3c2c1` [Compound 452, (R)-N-((1H-pyrrolo[3,2-c]pyridin-2-yl)methyl)-2-(2-(4-(2-(2-(2-aminoethoxy)ethoxy)-ethoxy)phenyl)-5-((1-(dibenzo [b,d]furan-2-yl)ethyl)amino)-6-oxopyrimidin-1(6H)-yl)-acetamide], the IC50 was under 100 nM.
The figure for `O=C(Cn1c(-c2ccccc2)ncc(Nc2cccc(-c3ccc(F)cc3)c2)c1=O)NCc1cc2cnccc2[nH]1` [Compound 236, N-((1H-pyrrolo[3,2-c]pyridin-2-yl)methyl)-2-(5-((4′-fluoro-[1,1′-biphenyl]-3-yl)amino)-6-oxo-2-phenylpyrimidin-1(6H)-yl)acetamide] is under 100 nM; for `C[C@H](Nc1cnc(-c2cccnc2)n(CC(=O)NCc2cc3cnccc3[nH]2)c1=O)c1ccc2oc3ccccc3c2c1` [Compound 274, (S)-N-((1H-pyrrolo[3,2-c]pyr-idin-2-yl)methyl)-2-(5-((1-(dibenzo[b,d]furan-2-yl)ethyl)-amino)-6-oxo-2-(pyridin-3-yl)-pyrimidin-1(6H)-yl)acetamide] it is under 100 nM.
For the compound `Cc1c(NCCCc2ccccc2)ccc(-c2ccccc2)c1CC(=O)NCc1cc2cnccc2[nH]1` [Compound 85, N-((1H-pyrrolo[3,2-c]pyridine-2-yl)methyl)-2-(3-methyl-4-((3-phenylpropyl)amino)-[1,1′-biphenyl]-2-yl)acetamide], the IC50 was over 1000 nM.
The figure for `C[C@H](Nc1cnc(N2CCn3c(nnc3C(F)(F)F)C2)n(CC(=O)NCc2cc3cnccc3[nH]2)c1=O)c1ccc2oc3ccccc3c2c1` [Compound 300, (S)—N-((1H-pyrrolo[3,2-c]pyridine-2-yl)methyl)-2-(5-((1-(dibenzo[b,d]furan-2-yl)ethyl)amino)-6-oxo-2-(3-(trifluoromethyl)-5,6-dihydro-[1,2,4]triazolo[4,3-a]pyrazin-7(8H)-yl)pyrimidin-1(6H)-yl)acetamide] is under 100 nM; for `C[C@H](Nc1cnc(-c2ccccc2)n(CC(=O)NCc2cc3cnccc3[nH]2)c1=O)c1ccc(-c2ccccc2)cc1` [Compound 276, (S)-N-((1H-pyrrolo[3,2-c]pyr-idin-2-yl)methyl)-2-(5-((1-([1,1′-biphenyl]-4-yl)ethyl)-amino)-6-oxo-2-phenylpyrimi-din-1(6H)-yl)acetamide] it is under 100 nM; for `O=C(Cn1c(-c2ccccc2)cnc(NCc2ccc3oc4ccccc4c3c2)c1=O)NCc1cc2cnccc2[nH]1` [Compound 176, N-((1H-pyrrolo[3,2-c]pyridin-2-yl)methyl)-2-(3-((dibenzo [b,d]furan-2-ylmethyl)amino)-2-oxo-6-phenylpyrazin-1(2H)-yl)acetamide] it is under 100 nM.

What is called IC50 is the concentration at which inhibition is half-maximal.
